The subject of one test is anaerobic digester. Briefly: Methane production in anaerobic digestion of chlorine dioxide pretreated WAS. Particulars: versus non-pretreated WAS, measured. The procedure: Treatment of non-digested wastewater sludge with chlorine dioxide to solubilized the sludge and make nutrients bio-available and then feeding this material into an established anaerobic digester once the chlorine dioxide residual has been reduced improves gas (methane) production in an anaerobic digester. A generally accepted estimate for methane production at 35° C. is 0.25 kg methane per kg COD consumed. One kmol of methane is equivalent with a mass of 16 kg. Per definition, the COD equivalent of 1 kmol of methane is the mass of the amount of oxygen required for complete oxidation according to the formula: CH4+2O2→CO2+2H2O The mass of the 2O2 is 2 kmol of oxygen or 64 kg. Thus 64 kg Oxygen Demand is equivalent with 16 kg of methane, or 1 kg of oxygen demand (COD) is equivalent with 16/64=0.25 kg methane.
This increase in soluble COD represents 10-11% of the total COD concentration of the sludge, and represents a 2000% increase in soluble COD. The inventors believe that the higher the s-COD the higher capacity for methane production. The resulting increase in methane production as a result of this enhancement of anaerobic digestion has been measured as a greater than 50% increase utilizing this method, and is expected to be in the range of 100% or more over non-pretreated WAS. […]

Test [1] deals with Waste activated sludge (WAS). Briefly: Waste activated sludge solubilization by chlorine dioxide in digesters (soluble COD, NH4, PO4, volatile solids). The procedure: Waste activated sludge (WAS) was obtained from a local municipal WWTP which removes cBOD only and uses a pure oxygen system. In order to achieve similar experiment conditions and be consistent with the previous pilot experiment, the solids concentration was adjusted to approximately 7 g/L. Three digesters were set up and treated with chlorine dioxide dosages of 100, 150 and 200 mg/L respectively. The digesters were operated for 24 hours. Samples were taken at time intervals of 10 min, 1 h, 6 h, 12 h and 24 h to represent different contact time.
This confirmed that chlorine dioxide contact time is the key factor for WAS solubilization. The increased soluble COD concentration can be expressed as 10-11% of TCOD which is quite significant. It was also observed that soluble COD concentration at contacting time of 6 hr was approximately 55-66% of the soluble COD at time 24 hrs. […] The increase of soluble COD corresponded to the volatile solids destruction of 4-6% with different chlorine dioxide treatment dosage.
This is considered insignificant. The PO4 increase was much higher and equaled 16 to 28.3 mg P/L after 24 h. Higher phosphorus than nitrogen release can be attributed to the chlorine dioxide treatment which breaks down the cell walls resulting in the release of unbound orthophosphate PO4—P. The nitrogen in the cells is in the form of organic nitrogen (amino acids) and enzymes are required to convert organic nitrogen to ammonia nitrogen. The low pH resulting from the chlorine dioxide treatment may have deactivated the enzyme activity, therefore no/insignificant NH4—N increase was detected.

Another test relates to fecal coliform. Briefly: Secondary sludge full-scale test: fecal coliform reduction by chlorine dioxide. Particulars: for Fecal coliform: secondary sludge, 10 minutes contact time. It is filed as cell-based. The procedure: Treatment of non-digested wastewater sludge with chlorine dioxide allows the material to meet Class B pathogen reduction requirements prior to digestion by reducing the fecal coliform concentrations to levels much lower than the Class B standard (<2,000,000 fecal coliform bacteria) with less than 15 minutes contact time. The resulting biosolids cake has no odor.
In this test, chlorine dioxide was generated on-site, and was injected (at varying concentrations) into a 100 gpm sludge flow passing through a 4 inch diameter pipe. The pipe length was sufficient to allow 10 minutes of contact time between the sludge and the chlorine dioxide prior to dewatering the material.

Where [2] appears, read: chlorine dioxide 100-200 mg/L, 24 h.

Molecules are shown by their SMILES.

On to `[O][Cl+][O-]` [chlorine dioxide], for which, in the test with anaerobic digester, the “increase in methane production” value is given as “greater than 50%”. Also, the “soluble COD at contact time 6 hr as share of soluble COD at 24 hrs” value in test [1] (chlorine dioxide 100-200 mg/L) was 55-66%. Moreover, the “increase in soluble COD” value in test [1] (setting [2]) is 2000%. For the same compound, in test [1] (setting [2]), the “increase in soluble COD as share of total COD (TCOD)” value is reported as 10-11%. Moreover, in test [1] (different chlorine dioxide treatment dosage (100-200 mg/L)), the volatile solids destruction is recorded as 4-6%. Also, the “fecal coliform concentrations after treatment (Class B standard)” value with fecal coliform (non-digested wastewater sludge, less than 15 minutes contact time) is given as < 2,000,000 fecal coliform bacteria. Further, the Fecal coliform in the test with fecal coliform (ClO2 dose rate 64 mg/L) is 1,800 MPN/g; in the test on fecal coliform (ClO2 dose rate 80 mg/L), “BDL”; with fecal coliform (ClO2 dose rate 96 mg/L) it was “BDL”; with fecal coliform (ClO2 dose rate 128 mg/L), “BDL”; in the test with fecal coliform (ClO2 dose rate 160 mg/L), “BDL*”.

(Values after patent US9758401B2, “Digestion of biosolids in wastewater” (BCR ENVIRONMENTAL CORPORATION, priority 2009, dated 2017).)
